From US4378358A, “Benzothiazinopyrazoles having pharmacological activity” (Mediolanum Farmaceutici s.r.l., priority 1980, dated 1983)
Where two headings read alike, the source gives them in different places.

Key:
in vivo [1] = settings: mouse, po
Rat = test: in vivo; type: in vivo
in vivo [2] = type: in vivo; settings: rat, in vivo, po; read-out: LD 50 (Litchfield and Wilcoxon)
rats [3] = type: in vivo, rat; settings: single oral administration, male rats; for Average number of lesions per animal: 100 mg/kg (maximum tested dose)
Procedure: The test was modified by increasing the fast period to 70 hours and giving the total dose of substance in one single oral administration.
Animals: 10 male rats for each group, average body weight: 150g.

pyresis = test: Antipyretic activity according to Burn et al.; type: in vivo, rat; settings: for Reduction of the pyresis at hour 4: female rats
Description: Animals: 6 female rats for each group, average body weight 200 g.

rats [4] = test: in vivo; settings: 5 days, rats, per os
Description: (§1) Five days subacute toxicity in rats per os
(§2) Animals: 5 female rats for each group, average body weight: 150g.

in vivo [5] = settings: rat, in vivo, po; for mortality at 120 h: read-out: % of dead animals; for mortality: read-out: % of dead animals per day
Description: as §1, §2

carrageenin paw edema = test: Antiinflammatory activity according to Winter et al., carrageenin paw edema, modified; type: in vivo, rat; settings: for inhibition in vivo at 50 mg/kg / inhibition in vivo at 100 mg/kg: Rattus norvegicus, po, 4 h, female rats, read-out: % inhibition of the edema after 4 hours
Procedure: Antiinflammatory activity according to WINTER et al., Proc. Soc. Exp. Biol. Med.; 111, 544; 1962.
The test was modified in that the injection of carrageenin and the administration of the compound by gastric gavage were carried out simultaneously and the paw edema was measured at the plethysmograph after 4 hours.
Animals: 6 female rats for each group, average body weight: 150g

phenylquinone writhes = test: Analgesic activity according to Hendershot et al., phenylquinone writhes, modified; type: in vivo, mouse; settings: for inhibition in vivo at 50 mg/kg / inhibition in vivo at 100 mg/kg: Mus musculus, 2 h before phenylquinone, 5-15 min, female mice
Procedure: Analgesic activity according to HENDERSHOT et al., Jour. Pharm.
The test was modified by numbering the writhes only along the time interval from 5 to 15 minutes since the injection of phenylquinone. The injection was made 2 hours after the oral administration of the compound to be tested.
Animals: 8 female mice for each group, average body weight: 25g

[6] = 50 mg/g (so in the source) per os
[7] = 100 mg/g (so in the source) per os

SMILES | LD50 (in vivo [1]) [mg/kg] | LD50 (in vivo [2]) [mg/kg] | Average number of lesions per animal (rats [3]) | Gastrolesive effect, relative potency to naproxen (rats [3]) | Gastrolesive effect, relative potency to piroxicam (rats [3]) | Antipyretic relative potency to naproxen (pyresis; [6]) | Antipyretic relative potency to piroxicam (pyresis; [6]) | Reduction of the pyresis at hour 4 (pyresis; [6]) [°C] | Antipyretic relative potency to naproxen (pyresis; [7]) | Antipyretic relative potency to piroxicam (pyresis; [7]) | Reduction of the pyresis at hour 4 (pyresis; [7]) [°C] | Subacute toxicity, relative ratio to naproxen (rats [4]) | Subacute toxicity, relative ratio to piroxicam (rats [4]) | Antiinflammatory relative potency to naproxen (carrageenin paw edema; 50 mg/kg per os) | Antiinflammatory relative potency to piroxicam (carrageenin paw edema; 50 mg/kg per os) | Antiinflammatory relative potency to naproxen (carrageenin paw edema; 100 mg/kg per os) | Antiinflammatory relative potency to piroxicam (carrageenin paw edema; 100 mg/kg per os) | inhibition in vivo at 50 mg/kg (carrageenin paw edema; 50 mg/kg per os) [%] | inhibition in vivo at 100 mg/kg (carrageenin paw edema; 100 mg/kg per os) [%] | Analgesic relative potency to naproxen (phenylquinone writhes; 50 mg/kg oral) | other results
CN1c2c(C(=O)NCCCN3CCOCC3)nn(-c3ccccc3)c2-c2ccccc2S1(=O)=O [Compound I-3] | 2200 | 1080 | 0 | > 20 | 100 | 0.7 | 0.9 | 0.77 | 1.0 | 1.2 | 1.08 | 4 | 10 | 0.4 | 0.2 | 0.7 | 0.3 | 9 | 15 | 1.0 | LD 50, relative ratio to piroxicam (Rat; in vivo): 4.0; LD 50, relative ratio to naproxen (Mouse; per os): 1.8; LD 50, relative ratio to piroxicam (Mouse; per os): 6.1; mortality at 120 h (in vivo [5]; 200 mg/kg/day): 0%; Analgesic relative potency to piroxicam (phenylquinone writhes; 50 mg/kg oral): 0.7; Analgesic relative potency to naproxen (phenylquinone writhes; 100 mg/kg oral): 1.8; Analgesic relative potency to piroxicam (phenylquinone writhes; 100 mg/kg oral): 1.3; inhibition in vivo at 50 mg/kg (phenylquinone writhes; 50 mg/kg oral): 33%; inhibition in vivo at 100 mg/kg (phenylquinone writhes; 100 mg/kg oral): 60%
CN1c2c(C(=O)NCCCNC3CCCCC3)nn(-c3ccccc3)c2-c2ccccc2S1(=O)=O [Compound I-4] | 720 | 1090 | 0 | > 20 | 100 | 1.2 | 1.6 | 1.40 | 1.3 | 1.7 | 1.47 | 2 | 5 | 1.7 | 0.8 | 2.4 | 1.1 | 36 | 50 | 1.3 | LD 50, relative ratio to piroxicam (Rat; in vivo): 4.0; LD 50, relative ratio to piroxicam (Mouse; in vivo): 2.0; mortality at 120 h (in vivo [5]; 100 mg/kg/day): 0%; mortality (in vivo [5]; 100 mg/kg/day): 0%; mortality at 120 h (in vivo [5]; 200 mg/kg/day): 20%; mortality (in vivo [5]; 200 mg/kg/day): 4%; Analgesic relative potency to piroxicam (phenylquinone writhes; 50 mg/kg oral): 0.9; Analgesic relative potency to naproxen (phenylquinone writhes; 100 mg/kg oral): 1.8; Analgesic relative potency to piroxicam (phenylquinone writhes; 100 mg/kg oral): 1.3; inhibition in vivo at 50 mg/kg (phenylquinone writhes; 50 mg/kg oral): 42%; inhibition in vivo at 100 mg/kg (phenylquinone writhes; 100 mg/kg oral): 59%
CCN(CC)CCNC(=O)c1nn(-c2cccc(F)c2)c2c1N(C)S(=O)(=O)c1ccccc1-2 [Compound I-20] | 1600 | 2220 | 0 | > 20 | 100 | 0.4 | 0.5 | 0.45 | 0.7 | 0.8 | 0.75 | 7 | 17 | 0.7 | 0.3 | 1.0 | 0.5 | 15 | 21 | 1.3 | LD 50, relative ratio to naproxen (Rat; per os): 4.1; LD 50, relative ratio to piroxicam (Rat; per os): 8.2; LD 50, relative ratio to naproxen (Mouse; per os): 1.3; LD 50, relative ratio to piroxicam (Mouse; per os): 4.4; mortality at 120 h (in vivo [5]; 350 mg/kg/day): 0%; Analgesic relative potency to piroxicam (phenylquinone writhes; 50 mg/kg oral): 1.0; Analgesic relative potency to naproxen (phenylquinone writhes; 100 mg/kg oral): 2.2; Analgesic relative potency to piroxicam (phenylquinone writhes; 100 mg/kg oral): 1.6; inhibition in vivo at 50 mg/kg (phenylquinone writhes; 50 mg/kg oral): 44%; inhibition in vivo at 100 mg/kg (phenylquinone writhes; 100 mg/kg oral): 72%
CN(C)CCCNC(=O)c1nn(-c2cccc(F)c2)c2c1N(C)S(=O)(=O)c1ccccc1-2 [Compound I-21] | 1520 | 2260 | 0 | > 20 | 100 | 0.4 | 0.5 | 0.47 | 0.7 | 0.8 | 0.75 | 7 | 17 | 0.6 | 0.3 | 0.9 | 0.4 | 12 | 19 | 1.4 | LD 50, relative ratio to naproxen (Rat; per os): 4.2; LD 50, relative ratio to piroxicam (Rat; per os): 8.4; LD 50, relative ratio to naproxen (Mouse; per os): 1.2; LD 50, relative ratio to piroxicam (Mouse; per os): 4.2; mortality at 120 h (in vivo [5]; 350 mg/kg/day): 0%; Analgesic relative potency to piroxicam (phenylquinone writhes; 50 mg/kg oral): 1.0; Analgesic relative potency to naproxen (phenylquinone writhes; 100 mg/kg oral): 2.0; Analgesic relative potency to piroxicam (phenylquinone writhes; 100 mg/kg oral): 1.4; inhibition in vivo at 50 mg/kg (phenylquinone writhes; 50 mg/kg oral): 47%; inhibition in vivo at 100 mg/kg (phenylquinone writhes; 100 mg/kg oral): 65%
CN1c2c(C(=O)NCCCNC3CCCCC3)nn(-c3cccc(F)c3)c2-c2ccccc2S1(=O)=O [Compound I-23] | 720 | 1200 | 0 | > 20 | 100 | 1.1 | 1.3 | 1.20 | 1.3 | 1.6 | 1.42 | 4 | 10 | 1.3 | 0.6 | 1.8 | 0.8 | 27 | 38 | 1.6 | LD 50, relative ratio to naproxen (Rat; per os): 2.2; LD 50, relative ratio to piroxicam (Rat; per os): 4.4; LD 50, relative ratio to piroxicam (Mouse; in vivo): 2.0; mortality at 120 h (in vivo [5]; 200 mg/kg/day): 0%; Analgesic relative potency to piroxicam (phenylquinone writhes; 50 mg/kg oral): 1.2; Analgesic relative potency to naproxen (phenylquinone writhes; 100 mg/kg oral): 2.4; Analgesic relative potency to piroxicam (phenylquinone writhes; 100 mg/kg oral): 1.7; inhibition in vivo at 50 mg/kg (phenylquinone writhes; 50 mg/kg oral): 54%; inhibition in vivo at 100 mg/kg (phenylquinone writhes; 100 mg/kg oral): 79%
